Reference: ChEMBL document CHEMBL1153321, “Approaches to the simultaneous inactivation of metallo- and serine-beta-lactamases” (Bioorg Med Chem Lett, 2009)

Key:
Enterobacter cloacae [1] = assay: Activity of Enterobacter cloacae beta-lactamase OXA-1
[2] = target: Beta-lactamase TEM (Enterobacter cloacae) (UniProt Q6W9J1); assay: Ratio of Kcat to Km of Enterobacter cloacae beta-lactamase TEM-1
Enterobacter cloacae [3] = assay: Ratio of Kcat to Km of Enterobacter cloacae beta-lactamase OXA-1

Chain of Beta-lactamase TEM (Enterobacter cloacae) (Q6W9J1 as listed by the source): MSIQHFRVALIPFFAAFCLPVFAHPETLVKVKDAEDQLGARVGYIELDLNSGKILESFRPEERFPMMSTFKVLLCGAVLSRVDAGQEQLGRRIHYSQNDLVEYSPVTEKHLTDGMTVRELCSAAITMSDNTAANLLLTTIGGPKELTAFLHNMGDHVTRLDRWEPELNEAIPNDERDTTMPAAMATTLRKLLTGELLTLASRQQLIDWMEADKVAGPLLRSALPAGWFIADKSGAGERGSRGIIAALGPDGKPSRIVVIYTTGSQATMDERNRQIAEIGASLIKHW

| SMILES | Km (Enterobacter cloacae [1]) [µM] | Ratio [2] | Ratio (Enterobacter cloacae [3]) | kcat (Enterobacter cloacae [1]) [s⁻¹] |
| --- | --- | --- | --- | --- |
| CC(=O)OCC1=C(C(=O)O)N2C(=O)[C@@H](NO)[C@H]2SC1 | > 400 | 2620 s⁻¹ M⁻¹ | 66 s⁻¹ M⁻¹ |  |
| CC(=O)OCC1=C(C(=O)O)N2C(=O)[C@@H](N(O)C(=O)Cc3ccccc3)[C@H]2SC1 | 60 | 2620 s⁻¹ M⁻¹ | 2020 s⁻¹ M⁻¹ | 0.121 |
| CC1=C(C(=O)O)N2C(=O)/C(=N/O)[C@H]2S(=O)(=O)C1 |  | 40 s⁻¹ M⁻¹ |  |  |
| CC(=O)OCC1=C(C(=O)O)N2C(=O)[C@@H](NC=O)[C@H]2SC1 | 323 | 6 ×10⁴ /s/M | 3160 s⁻¹ M⁻¹ | 1.02 |
| CC(=O)OCC1=C(C(=O)O)N2C(=O)/C(=N/O)[C@H]2S(=O)(=O)C1 | > 400 | 1690 s⁻¹ M⁻¹ | 990 s⁻¹ M⁻¹ |  |
| CC(=O)OCC1=C(C(=O)O)N2C(=O)[C@@H](NC(=O)Cc3cccs3)[C@H]2SC1 | 13.9 | 4.85 ×10⁵ /s/M | 8.51 ×10⁴ /s/M | 1.81 |
| CC(=O)OCC1=C(C(=O)O)N2C(=O)[C@@H](N(O)C=O)[C@H]2SC1 | > 400 | 25 s⁻¹ M⁻¹ | 75 s⁻¹ M⁻¹ |  |
| CC(=O)OCC1=C(C(=O)O)N2C(=O)/C(=N/O)[C@H]2SC1 | > 400 | 158 s⁻¹ M⁻¹ | 88 s⁻¹ M⁻¹ |  |
